According to publication PMC9008208 (Frontiers in Cellular Neuroscience, 2022):

How the values were obtained:
α9α10 nAChR = target: T1, α9α10 nAChR (Homo sapiens, UniProt Q9GZZ6+Q9UGM1); test: two-electrode voltage clamp, Xenopus oocytes, concentration-response (partial agonist); assay type: cell-based
T1 construct: gene CHRNA9; with nAChR subunit α10 (CHRNA10)

α9 nAChR = target: T2, α9 nAChR (Homo sapiens, UniProt Q9UGM1); test: as above; assay type: cell-based
T2 construct: gene CHRNA9
T2 sequence (Q9UGM1 23-479): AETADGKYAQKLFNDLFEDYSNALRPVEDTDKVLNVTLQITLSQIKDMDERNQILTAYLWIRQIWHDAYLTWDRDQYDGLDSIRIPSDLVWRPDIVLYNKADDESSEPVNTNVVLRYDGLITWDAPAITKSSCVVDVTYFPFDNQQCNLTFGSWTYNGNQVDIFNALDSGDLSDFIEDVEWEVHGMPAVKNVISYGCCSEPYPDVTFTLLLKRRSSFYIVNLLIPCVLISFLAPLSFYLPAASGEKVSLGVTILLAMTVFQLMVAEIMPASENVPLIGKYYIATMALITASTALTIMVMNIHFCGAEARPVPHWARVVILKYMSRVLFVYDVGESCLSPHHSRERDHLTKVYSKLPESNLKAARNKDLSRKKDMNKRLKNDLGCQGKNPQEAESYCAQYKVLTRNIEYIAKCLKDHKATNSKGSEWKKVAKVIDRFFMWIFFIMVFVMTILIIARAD

T1 sequence (Q9UGM1 23-479): as above
T1 sequence (Q9GZZ6 25-450): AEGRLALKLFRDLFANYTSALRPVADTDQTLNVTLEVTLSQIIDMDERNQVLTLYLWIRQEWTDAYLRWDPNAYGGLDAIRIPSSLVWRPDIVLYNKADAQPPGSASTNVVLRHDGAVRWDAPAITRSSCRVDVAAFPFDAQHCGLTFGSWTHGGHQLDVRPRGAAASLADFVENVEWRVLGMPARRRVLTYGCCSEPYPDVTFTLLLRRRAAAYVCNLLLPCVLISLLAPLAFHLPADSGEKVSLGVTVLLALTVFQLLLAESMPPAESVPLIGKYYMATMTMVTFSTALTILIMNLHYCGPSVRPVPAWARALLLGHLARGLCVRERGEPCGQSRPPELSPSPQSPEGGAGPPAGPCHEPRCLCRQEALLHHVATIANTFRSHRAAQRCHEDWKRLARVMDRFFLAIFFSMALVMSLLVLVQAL

`CC[N+]1(CC)CCN(c2ccc(C(F)(F)F)cc2)CC1` [pCF3-diEPP] showed an EC50 (α9α10 nAChR) of 6.4 µM and an EC50 (α9 nAChR) of 7 µM.
